The results in this text go back to US20250326771A1, “PIPERAZINE DERIVATIVES USEFUL IN HIV THERAPY” (VIIV HEALTHCARE COMPANY, priority 2022, published 2025).

One experiment has as its target cIAP1-BIR3 (Homo sapiens (Human), UniProt Q13490). Description: BIR binding assay (FRET competition), cIAP1 BIR3. The settings on record: for cIAP1 BIR3 vs BIR2 separation window: fold separation (FS) for cIAP1. In outline: (§1)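 615/665 nm FRET ratio. Compound, His-domain and 200 nM AF647-SMAC peptide incubated 60 min, then 2 nM Eu-W1024 for 30 min. Domains: cIAP1-BIR3 50 nM; XIAP-BIR3 100 nM; cIAP1-BIR2, cIAP2-BIR2 325 nM each. 15-pt 3-fold series; variable-slope IC50.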

The subject of experiment [1] is Jurkat HIV-luciferase clones. Description: Jurkat latency reversal assay. The settings on record: Homo sapiens, 48 h; Jurkat latency reversal assay potency; read-out: Jurkat pEC50 (converted). The class given is cell-based. Summed up: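 Three pooled Jurkat reporter clones, each with one or two integrated HIV-luciferase proviruses, 5,000 cells/well; duplicate 14-point titrations starting at 10 μM; 48 h, 37° C, then Steady-Glo luminescence; four-parameter logistic analysis yields EC50 and percent maximal activation against DMSO vehicle.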

For the next experiment, the target named is XIAP-BIR2 (Homo sapiens (Human), UniProt P98170). As to the kind of experiment: BIR binding assay (FRET competition), XIAP BIR2. Summed up:
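Competitive TR-FRET used His-tagged XIAP-BIR2 (200 nM) and 200 nM AlexaFluor647-labelled AVPIAQKSE SMAC peptide in HEPES buffer pH 7.4 with CHAPS, glycerol and DTT, incubated 60 min before 30 min with 2 nM Eu-W1024. The 615/665 nm ratio from a 15-point, 3-fold series was fit with a four-parameter model for IC50/pIC50.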

Another experiment concerns the target cIAP1-BIR2 (Homo sapiens (Human), UniProt Q13490). Description: BIR binding assay (FRET competition), cIAP1 BIR2. In outline: as §1
In a further experiment the target is cIAP2-BIR3 (Homo sapiens (Human), UniProt Q13489). Description: BIR binding assay (FRET competition), cIAP2 BIR3. The settings on record: for cIAP2 BIR3 vs BIR2 separation window: fold separation (FS) for cIAP2.
Sequence of cIAP2-BIR3 (Q13489 238-349): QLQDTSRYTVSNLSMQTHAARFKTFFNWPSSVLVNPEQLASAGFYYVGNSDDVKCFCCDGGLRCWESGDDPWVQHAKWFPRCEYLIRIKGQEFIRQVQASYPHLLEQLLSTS
The target in a further experiment is XIAP-BIR3 (Homo sapiens (Human), UniProt P98170). Description: BIR binding assay (FRET competition), XIAP BIR3. The settings on record: for XIAP BIR3 vs BIR2 separation window: fold separation (FS) for XIAP. In outline: as §1
Sequence of XIAP-BIR3 (P98170 241-356): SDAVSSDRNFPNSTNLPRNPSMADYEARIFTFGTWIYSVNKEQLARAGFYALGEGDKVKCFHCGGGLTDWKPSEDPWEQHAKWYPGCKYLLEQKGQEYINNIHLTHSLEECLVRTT
For a further experiment, the target named is cIAP2-BIR2 (Homo sapiens (Human), UniProt Q13489). Description: BIR binding assay (FRET competition), cIAP2 BIR2. In outline:
as §1

Where [2] appears, read: FRET competition, read-out: XIAP BIR2 (pIC50) (converted).
[3] abbreviates: FRET competition binding, read-out: XIAP BIR2 (pIC50) (converted).

Structures are written as SMILES. Like-named read-outs stand apart in the source and are kept apart here.

Sequence of XIAP-BIR2 (P98170 124-240): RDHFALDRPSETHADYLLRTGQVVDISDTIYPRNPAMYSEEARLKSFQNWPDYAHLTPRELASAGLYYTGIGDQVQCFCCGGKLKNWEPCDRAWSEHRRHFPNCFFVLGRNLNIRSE
Sequence of cIAP2-BIR2 (Q13489 158-242): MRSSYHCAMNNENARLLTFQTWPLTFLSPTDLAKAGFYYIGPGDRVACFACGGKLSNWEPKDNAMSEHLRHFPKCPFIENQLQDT
Sequence of cIAP1-BIR2 (Q13490 173-257): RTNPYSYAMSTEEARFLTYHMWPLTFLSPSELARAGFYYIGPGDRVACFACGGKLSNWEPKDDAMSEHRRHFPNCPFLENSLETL
Sequence of cIAP1-BIR3 (Q13490 253-363): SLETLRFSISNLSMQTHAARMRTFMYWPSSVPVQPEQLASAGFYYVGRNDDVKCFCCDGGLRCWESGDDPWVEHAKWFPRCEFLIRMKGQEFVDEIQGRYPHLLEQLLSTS

Regarding `C[C@@H]1CN(CC(=O)N2CC(C)(C)c3[nH]c(=O)c(Cc4ccc(F)cc4)cc32)[C@@H](CN2CCO[C@H](C(=O)NCC3CCN(C(=O)[C@@H]4CN(C[C@H]5CN[C@H](C)CN5CC(=O)N5CC(C)(C)c6[nH]c(=O)c(Cc7ccc(F)cc7)cc65)CCO4)CC3)C2)CN1` [Compound 133, (S)-4-(((2R,5R)-1-(2-(6-(4-fluorobenzyl)-3,3-dimethyl-5-oxo-2,3,4,5-tetrahydro-1H-pyrrolo[3,2-b]pyridin-1-yl)-2-oxoethyl)-5-methylpiperazin-2-yl)methyl)-N-((1-((S)-4-(((2R,5R)-1-(2-(6-(4-fluorobenzyl)-3,3-dimethyl-5-oxo-2,3,4,5-tetrahydro-1H-pyrrolo[3,2-b]pyridin-1-yl)-2-oxoethyl)-5-methylpiperazin-2-yl)methyl)morpholine-2-carbonyl)piperidin-4-yl)methyl)morpholine-2-carboxamide], the IC50 on cIAP1-BIR3 is 31.6 to 501 nM; on XIAP-BIR2 (setting [2]), 10 to 51.3 µM; on cIAP1-BIR2, 1000 to 3160 nM; on cIAP2-BIR3, 7.94 to 15.8 nM; on XIAP-BIR3, 15.8 to 31.6 nM; on cIAP2-BIR2 it was 3.16 to 10 µM. Besides, the “cIAP1 BIR3 vs BIR2 separation window” value at cIAP1-BIR3 is reported as “++ (1,000>FS>100)”. Besides, the EC50 in experiment [1] was 63.1 to 316 nM. The “cIAP2 BIR3 vs BIR2 separation window” value on cIAP2-BIR3 is recorded as “+++ (10,000>FS>1,000)”. Besides, the “XIAP BIR3 vs BIR2 separation window” value on XIAP-BIR3 is listed as “++++ (FS>10,000)”.

Turning to `C[C@@H]1CN(CC(=O)N2CC(C)(C)c3ncc(Cc4cccnc4)cc32)[C@@H](CN2CCO[C@H](COc3cccc(OC[C@@H]4CN(C[C@H]5CN[C@H](C)CN5CC(=O)N5CC(C)(C)c6ncc(Cc7cccnc7)cc65)CCO4)c3)C2)CN1` [Compound 146], the IC50 at cIAP1-BIR3 fell in the range of 1.38 to 7.94 nM; on XIAP-BIR2 it was 10 to 51.3 µM; at cIAP1-BIR2, 10000 to 51300 nM; on cIAP2-BIR3, 1.38 to 7.94 nM; at XIAP-BIR3, 31.6 to 501 nM; at cIAP2-BIR2 it was 10 to 51.3 µM. Besides, at cIAP1-BIR3, the “cIAP1 BIR3 vs BIR2 separation window” value is on record as “++++ (FS>10,000)”. Further, in experiment [1], the EC50 was 316 to 3310 nM. Further, at cIAP2-BIR3, the “cIAP2 BIR3 vs BIR2 separation window” value is reported as “++++ (FS>10,000)”. The “XIAP BIR3 vs BIR2 separation window” value at XIAP-BIR3 is “++++ (FS>10,000)”.

With `C[C@@H]1CN(CC(=O)N2CC(C)(C)c3[nH]c(=O)c(Cc4ccc(F)cc4)cc32)[C@@H](CN2CCC(CN(C)C(=O)Cc3cccc(C(=O)N(C)CC4CCN(C[C@H]5CN[C@H](C)CN5CC(=O)N5CC(C)(C)c6[nH]c(=O)c(Cc7ccc(F)cc7)cc65)CC4)c3)CC2)CN1` [Example 98, N-((1-(((2R,5R)-1-(2-(6-(4-fluorobenzyl)-3,3-dimethyl-5-oxo-2,3,4,5-tetrahydro-1H-pyrrolo[3,2-b]pyridin-1-yl)-2-oxoethyl)-5-methylpiperazin-2-yl)methyl)piperidin-4-yl)methyl)-3-(2-(((1-(((2R,5R)-1-(2-(6-(4-fluorobenzyl)-3,3-dimethyl-5-oxo-2,3,4,5-tetrahydro-1H-pyrrolo[3,2-b]pyridin-1-yl)-2-oxoethyl)-5-methylpiperazin-2-yl)methyl)piperidin-4-yl)methyl)(methyl)amino)-2-oxoethyl)-N-methylbenzamide], the IC50 on cIAP1-BIR3 was 1.38 to 7.94 nM; on XIAP-BIR2 (setting [3]) it was 10 to 51.3 µM; at cIAP1-BIR2, 1000 to 3160 nM; on cIAP2-BIR3 it was 1.38 to 7.94 nM; on XIAP-BIR3, 7.94 to 15.8 nM; at cIAP2-BIR2, 10 to 51.3 µM. In addition, the “cIAP1 BIR3 vs BIR2 separation window” value on cIAP1-BIR3 was “+++ (10,000>FS>1,000)”. The EC50 in experiment [1] is 63.1 to 316 nM. Also, the “cIAP2 BIR3 vs BIR2 separation window” value at cIAP2-BIR3 was “+++ (10,000>FS>1,000)”. Further, the “XIAP BIR3 vs BIR2 separation window” value on XIAP-BIR3 is recorded as “++++ (FS>10,000)”.

Consider `C[C@@H]1CN(CC(=O)N2CC(C)(C)c3[nH]c(=O)c(Cc4ccc(F)cc4)cc32)[C@@H](CN2CCO[C@H](C(=O)NCC(=O)N3CCN(C[C@H]4CN[C@H](C)CN4CC(=O)N4CC(C)(C)c5[nH]c(=O)c(Cc6ccc(F)cc6)cc54)[C@H](C)C3)C2)CN1` [Compound 159, (S)-4-(((2R,5R)-1-(2-(6-(4-fluorobenzyl)-3,3-dimethyl-5-oxo-2,3,4,5-tetrahydro-1H-pyrrolo[3,2-b]pyridin-1-yl)-2-oxoethyl)-5-methylpiperazin-2-yl)methyl)-N-(2-((R)-4-(((2R,5R)-1-(2-(6-(4-fluorobenzyl)-3,3-dimethyl-5-oxo-2,3,4,5-tetrahydro-1H-pyrrolo[3,2-b]pyridin-1-yl)-2-oxoethyl)-5-methylpiperazin-2-yl)methyl)-3-methylpiperazin-1-yl)-2-oxoethyl)morpholine-2-carboxamide], for which the IC50 on cIAP1-BIR3 is 7.94 to 15.8 nM; at XIAP-BIR2 (setting [2]) it was 10 to 51.3 µM; at cIAP1-BIR2 it was 22.4 to 1000 nM; at cIAP2-BIR3 it was 1.38 to 7.94 nM; at XIAP-BIR3 it was 7.94 to 15.8 nM; at cIAP2-BIR2, 0.0224 to 1 µM. Moreover, the “cIAP1 BIR3 vs BIR2 separation window” value at cIAP1-BIR3 is given as “++ (1,000>FS>100)”. Further, the EC50 in experiment [1] is 63.1 to 316 nM. In addition, the “cIAP2 BIR3 vs BIR2 separation window” value on cIAP2-BIR3 is recorded as “+++ (10,000>FS>1,000)”. Besides, the “XIAP BIR3 vs BIR2 separation window” value on XIAP-BIR3 is “++++ (FS>10,000)”.

As for `C[C@@H]1CN(CC(=O)N2CC(C)(C)c3[nH]c(=O)c(Cc4ccc(F)cc4)cc32)[C@@H](CN2CCO[C@H](C(=O)NCCCCNC(=O)[C@@H]3CN(C[C@H]4CN[C@H](C)CN4CC(=O)N4CC(C)(C)c5[nH]c(=O)c(Cc6ccc(F)cc6)cc54)CCO3)C2)CN1` [Example 126, (2S,2'S)-N,N′-(butane-1,4-diyl)bis(4-(((2R,5R)-1-(2-(6-(4-fluorobenzyl)-3,3-dimethyl-5-oxo-2,3,4,5-tetrahydro-1H-pyrrolo[3,2-b]pyridin-1-yl)-2-oxoethyl)-5-methylpiperazin-2-yl)methyl)morpholine-2-carboxamide)], the IC50 at cIAP1-BIR3 was 7.94 to 15.8 nM; at XIAP-BIR2 (setting [3]), 10 to 51.3 µM; at cIAP1-BIR2, 1000 to 3160 nM; on cIAP2-BIR3 it was 7.94 to 15.8 nM; at XIAP-BIR3, 7.94 to 15.8 nM; at cIAP2-BIR2 it was 1 to 3.16 µM. Moreover, the “cIAP1 BIR3 vs BIR2 separation window” value on cIAP1-BIR3 is recorded as “+++ (10,000>FS>1,000)”. For the same compound, the EC50 in experiment [1] was 63.1 to 316 nM. Besides, the “cIAP2 BIR3 vs BIR2 separation window” value at cIAP2-BIR3 was “+++ (10,000>FS>1,000)”. The “XIAP BIR3 vs BIR2 separation window” value at XIAP-BIR3 is “++++ (FS>10,000)”.

As to `C[C@@H]1CN(CC(=O)N2CC(C)(C)c3[nH]c(=O)c(Cc4ccc(F)cc4)cc32)[C@@H](CN2CCN(C(=O)c3ccc(C(=O)N4CCN(C[C@H]5CN[C@H](C)CN5CC(=O)N5CC(C)(C)c6[nH]c(=O)c(Cc7ccc(F)cc7)cc65)[C@H](C)C4)cc3)C[C@H]2C)CN1` [Example 19, 1,1′-(2,2′-((3R,3′R,6R,6′R)-(((2R,2′R)-terephthaloylbis(2-methylpiperazine-4,1-diyl))bis(methylene))bis(3-methylpiperazine-6,1-diyl))bis(acetyl))bis(6-(4-fluorobenzyl)-3,3-dimethyl-1,2,3,4-tetrahydro-5H-pyrrolo[3,2-b]pyridin-5-one)], the IC50 was 1.38 to 7.94 nM on cIAP1-BIR3; 22.4 to 1000 nM on cIAP1-BIR2; 1.38 to 7.94 nM on cIAP2-BIR3; 1.38 to 7.94 nM on XIAP-BIR3; 0.0224 to 1 µM on cIAP2-BIR2. Further, at cIAP1-BIR3, the “cIAP1 BIR3 vs BIR2 separation window” value is listed as “+++ (10,000>FS>1,000)”. Further, the EC50 in experiment [1] was 63.1 to 316 nM. Further, the “XIAP BIR2 (pIC50)” value at XIAP-BIR2 (FRET competition binding) was “+ (4.29<pIC50<=5.00)”. Moreover, on cIAP2-BIR3, the “cIAP2 BIR3 vs BIR2 separation window” value is “+++ (10,000>FS>1,000)”. In addition, the “XIAP BIR3 vs BIR2 separation window” value at XIAP-BIR3 is “++++ (FS>10,000)”.

For `C[C@@H]1CN(CC(=O)N2CC(C)(C)c3[nH]c(=O)c(Cc4ccc(F)cc4)cc32)[C@@H](CN2CCO[C@H](COCc3cccc(COC[C@@H]4CN(C[C@H]5CN[C@H](C)CN5CC(=O)N5CC(C)(C)c6[nH]c(=O)c(Cc7ccc(F)cc7)cc65)CCO4)n3)C2)CN1` [Example 84, 1,1′-(2,2′-((3R,3′R,6R,6′R)-(((2S,2'S)-(((pyridine-2,6-diylbis(methylene))bis(oxy))bis(methylene))bis(morpholine-2,4-diyl))bis(methylene))bis(3-methylpiperazine-6,1-diyl))bis(acetyl))bis(6-(4-fluorobenzyl)-3,3-dimethyl-1,2,3,4-tetrahydro-5H-pyrrolo[3,2-b]pyridin-5-one)], the IC50 at cIAP1-BIR3 was 7.94 to 15.8 nM; on XIAP-BIR2 (setting [3]) it was 10 to 51.3 µM; on cIAP1-BIR2, 1000 to 3160 nM; on cIAP2-BIR3 it was 7.94 to 15.8 nM; on XIAP-BIR3, 15.8 to 31.6 nM; at cIAP2-BIR2, 3.16 to 10 µM. The “cIAP1 BIR3 vs BIR2 separation window” value on cIAP1-BIR3 was “+++ (10,000>FS>1,000)”. Besides, in experiment [1], the EC50 was 0.49 to 12.6 nM. The “cIAP2 BIR3 vs BIR2 separation window” value on cIAP2-BIR3 is recorded as “+++ (10,000>FS>1,000)”. Besides, the “XIAP BIR3 vs BIR2 separation window” value at XIAP-BIR3 was “++++ (FS>10,000)”.
